The record followed here is patent US9492453B2 (priority 2007, dated 2016).

The structures appear in SMILES notation. pIC50: −log10 of the molar value. Where two headings read alike, the source gives them in different places.

The test system of one assay is PKB (Akt). The settings on record: read-out: Cellular PKB Mean IC50; MDA-MB-468 cells, phosphorylation of Serine-9 of GSK-3β, 2 hours incubation.
In another assay the target is AKT1 (PKBα) (Homo sapiens (Human), UniProt P31749). The settings on record: read-out: In vitro PKBα Mean IC50, AKT1/PKBα active enzyme, Caliper LabChip LC3000.
Chain of AKT1 (PKBα) (P31749 whole entry): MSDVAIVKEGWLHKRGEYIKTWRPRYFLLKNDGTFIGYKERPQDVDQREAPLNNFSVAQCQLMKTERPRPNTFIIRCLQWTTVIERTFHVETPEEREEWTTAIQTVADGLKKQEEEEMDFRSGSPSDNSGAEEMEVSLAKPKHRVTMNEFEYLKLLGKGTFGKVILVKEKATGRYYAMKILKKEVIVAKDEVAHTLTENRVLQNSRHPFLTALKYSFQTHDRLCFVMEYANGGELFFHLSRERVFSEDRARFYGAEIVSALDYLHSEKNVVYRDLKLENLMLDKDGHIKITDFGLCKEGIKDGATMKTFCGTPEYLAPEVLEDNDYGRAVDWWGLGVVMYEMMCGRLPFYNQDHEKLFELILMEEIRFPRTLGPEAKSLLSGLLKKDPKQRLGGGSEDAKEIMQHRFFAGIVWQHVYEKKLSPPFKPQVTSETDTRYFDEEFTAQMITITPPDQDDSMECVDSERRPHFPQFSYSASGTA

What is called pIC50 is the IC50 on a negative log10 scale, so that one unit is a factor of ten. `NC1(C(=O)N[C@@H](CCO)c2ccccc2)CCN(c2ncnc3[nH]ccc23)CC1` [Example 21, (S)-4-amino-N-(3-hydroxy-1-phenylpropyl)-1-(7H-pyrrolo[2,3-d]pyrimidin-4-yl)piperidine-4-carboxamide]: the pIC50 in the assay on PKB (Akt) was less than 5.51; on AKT1 (PKBα) (tested once only) it was 7.23.

Regarding `NC1(C(=O)N[C@@H](CCO)c2ccc(Cl)cc2)CCN(c2ncnc3[nH]cnc23)CC1` [Example 22, (S)-4-amino-N-(1-(4-chlorophenyl)-3-hydroxypropyl)-1-(9H-purin-6-yl)piperidine-4-carboxamide], the values for the pIC50 with PKB (Akt) and on AKT1 (PKBα) were 6.77 and 8.12, respectively.

For `NCC1(C(=O)N[C@@H](CCO)c2ccc(Cl)cc2)CCN(c2ncnc3[nH]ccc23)CC1` [Example 23, (S)-4-(aminomethyl)-N-(1-(4-chlorophenyl)-3-hydroxypropyl)-1-(7H-pyrrolo[2,3-d]pyrimidin-4-yl)piperidine-4-carboxamide], the pIC50 with PKB (Akt) is 7.10; at AKT1 (PKBα), 8.89.

As to `NC1(C(=O)N[C@@H](CCO)c2ccc(Br)cc2)CCN(c2ncnc3[nH]ccc23)CC1` [Example 24, (S)-4-amino-N-(1-(4-bromophenyl)-3-hydroxypropyl)-1-(7H-pyrrolo[2,3-d]pyrimidin-4-yl)piperidine-4-carboxamide], the pIC50 was 7.22 in the assay with PKB (Akt) and 8.66 at AKT1 (PKBα).

On to `CCN(CC)CC[C@H](NC(=O)C1(N)CCN(c2ncnc3[nH]ccc23)CC1)c1ccc(Cl)cc1` [Example 26, (S)-4-amino-N-(1-(4-chlorophenyl)-3-(diethylamino)propyl)-1-(7H-pyrrolo[2,3-d]pyrimidin-4-yl)piperidine-4-carboxamide], for which the pIC50 was 7.05 in the assay on PKB (Akt) and 8.25 on AKT1 (PKBα).

Consider `CNCCC(NC(=O)C1(N)CCN(c2ncnc3[nH]ccc23)CC1)c1ccc(Cl)cc1` (stereo not drawn) [Example 28, 4-amino-N-(1-(4-chlorophenyl)-3-(methylamino)propyl)-1-(7H-pyrrolo[2,3-d]pyrimidin-4-yl)piperidine-4-carboxamide], for which the pIC50 in the assay with PKB (Akt) was 6.33; at AKT1 (PKBα), 8.35.

Consider `C[C@H](NC(=O)C1(N)CCN(c2ncnc3[nH]nc(Br)c23)CC1)c1ccc(Cl)cc1` [Example 31, 4-amino-1-(3-bromo-1H-pyrazolo[3,4-d]pyrimidin-4-yl)-N-[(1S)-1-(4-chlorophenyl)ethyl]piperidine-4-carboxamide], for which the pIC50 is 5.96 in the assay on PKB (Akt) and 7.62 on AKT1 (PKBα).

For `C[C@H](NC(=O)C1(N)CCN(c2ncnc3[nH]cc(Cl)c23)CC1)c1ccc(Cl)cc1` [Example 32, 4-amino-N-[(1S)-1-(4-chlorophenyl)ethyl]-1-(5-chloro-7H-pyrrolo[2,3-d]pyrimidin-4-yl)piperidine-4-carboxamide], the pIC50 was 6.38 in the assay on PKB (Akt) and 7.92 on AKT1 (PKBα).

Consider `NC1(C(=O)N[C@@H](CCO)c2ccc(Cl)cc2)CCN(c2ncnc3[nH]nc(Br)c23)CC1` [Example 33, 4-amino-1-(3-bromo-1H-pyrazolo[3,4-d]pyrimidin-4-yl)-N-[(1S)-1-(4-chlorophenyl)-3-hydroxypropyl]piperidine-4-carboxamide], for which the pIC50 was 6.62 in the assay on PKB (Akt) and 7.85 on AKT1 (PKBα).

For the molecule `NC1(C(=O)N[C@@H](CCO)c2ccc(Cl)cc2)CCN(c2ncnc3[nH]cc(Cl)c23)CC1` [Example 34, 4-amino-N-[(1S)-1-(4-chlorophenyl)-3-hydroxypropyl]-1-(5-chloro-7H-pyrrolo[2,3-d]pyrimidin-4-yl)piperidine-4-carboxamide], the pIC50 is 6.46 in the assay with PKB (Akt) and 8.04 on AKT1 (PKBα).

Regarding `C[C@H](NC(=O)C1(N)CCN(c2ncnc3[nH]cc(Br)c23)CC1)c1ccc(Cl)cc1` [Example 35, 4-amino-1-(5-bromo-7H-pyrrolo[2,3-d]pyrimidin-4-yl)-N-[(1S)-1-(4-chlorophenyl)ethyl]piperidine-4-carboxamide], the pIC50 was 6.55 in the assay with PKB (Akt) and 8.40 on AKT1 (PKBα).

As for `Cc1c[nH]c2ncnc(N3CCC(N)(C(=O)N[C@@H](CCO)c4ccc(Cl)cc4)CC3)c12` [Example 36, 4-amino-N-[(1S)-1-(4-chlorophenyl)-3-hydroxypropyl]-1-(5-methyl-7H-pyrrolo[2,3-d]pyrimidin-4-yl)piperidine-4-carboxamide], the negative logarithm of the IC50 (pIC50) with PKB (Akt) was 6.42; at AKT1 (PKBα) it was 7.85.

For the molecule `Cc1c[nH]c2ncnc(N3CCC(N)(C(=O)N[C@@H](C)c4ccc(Cl)cc4)CC3)c12` [Example 37, 4-amino-N-[(1S)-1-(4-chlorophenyl)ethyl]-1-(5-methyl-7H-pyrrolo[2,3-d]pyrimidin-4-yl)piperidine-4-carboxamide], the pIC50 is 6.26 in the assay with PKB (Akt) and 7.72 at AKT1 (PKBα).

On to `CC(C)(O)C[C@H](NC(=O)C1(N)CCN(c2ncnc3[nH]ccc23)CC1)c1ccc(Cl)cc1` [Example 38, 4-amino-N-[(1S)-1-(4-chlorophenyl)-3-hydroxy-3-methylbutyl]-1-(7H-pyrrolo[2,3-d]pyrimidin-4-yl)piperidine-4-carboxamide], for which the pIC50 with PKB (Akt) is 6.44; on AKT1 (PKBα), 8.27.

As to `NC1(C(=O)N[C@@H](CCO)c2cccc(Cl)c2)CCN(c2ncnc3[nH]ccc23)CC1` [Example 40, 4-amino-N-[(1S)-1-(3-chlorophenyl)-3-hydroxypropyl]-1-(7H-pyrrolo[2,3-d]pyrimidin-4-yl)piperidine-4-carboxamide], the figures for the pIC50 in the assay on PKB (Akt) and on AKT1 (PKBα) were 5.72 and 7.49, respectively.

`C[C@H](NC(=O)C1(N)CCN(c2ncnc3[nH]ccc23)CC1)c1ccc(C(F)(F)F)cc1` [Example 41, 4-amino-1-(7H-pyrrolo[2,3-d]pyrimidin-4-yl)-N-{(1S)-1-[4-(trifluoromethyl)phenyl]ethyl}piperidine-4-carboxamide]: the pIC50 was 6.27 in the assay with PKB (Akt) and 7.80 on AKT1 (PKBα).

As for `C[C@@H](NC(=O)C1(N)CCN(c2ncnc3[nH]ccc23)CC1)c1ccc(Br)cc1` [Example 42, 4-amino-N-[(1R)-1-(4-bromophenyl)ethyl]-1-(7H-pyrrolo[2,3-d]pyrimidin-4-yl)piperidine-4-carboxamide], the negative-log IC50 (pIC50) is 5.37 with PKB (Akt) and 7.49 on AKT1 (PKBα).

Consider `N#CC(NC(=O)C1(N)CCN(c2ncnc3[nH]ccc23)CC1)c1ccc(Cl)cc1` (stereo not drawn) [Example 45, 4-amino-N-[(4-chlorophenyl)(cyano)methyl]-1-(7H-pyrrolo[2,3-d]pyrimidin-4-yl)piperidine-4-carboxamide], for which the pIC50 was 6.11 with PKB (Akt) and 6.64 at AKT1 (PKBα).

Turning to `CN1CCN(CC[C@H](NC(=O)C2(N)CCN(c3ncnc4[nH]ccc34)CC2)c2ccc(Cl)cc2)CC1` [Example 50, 4-amino-N-[(1S)-1-(4-chlorophenyl)-3-(4-methylpiperazin-1-yl)propyl]-1-(7H-pyrrolo[2,3-d]pyrimidin-4-yl)piperidine-4-carboxamide], the pIC50 in the assay with PKB (Akt) was 6.72; on AKT1 (PKBα) it was 8.37.

For `NC1(C(=O)N[C@@H](CCN2CCOCC2)c2ccc(Cl)cc2)CCN(c2ncnc3[nH]ccc23)CC1` [Example 51, 4-amino-N-[(1S)-1-(4-chlorophenyl)-3-morpholin-4-ylpropyl]-1-(7H-pyrrolo[2,3-d]pyrimidin-4-yl)piperidine-4-carboxamide], the values for the pIC50 with PKB (Akt) and on AKT1 (PKBα) were 6.51 and 8.00, respectively.

Turning to `NC1(C(=O)N[C@@H](CCN2CCNCC2)c2ccc(Cl)cc2)CCN(c2ncnc3[nH]ccc23)CC1` [Example 53, 4-amino-N-[(1S)-1-(4-chlorophenyl)-3-piperazin-1-ylpropyl]-1-(7H-pyrrolo[2,3-d]pyrimidin-4-yl)piperidine-4-carboxamide], the pIC50 in the assay on PKB (Akt) was less than 5.62; on AKT1 (PKBα) it was 8.20.

For `NC1(C(=O)N[C@@H](CCn2ccnc2)c2ccc(Cl)cc2)CCN(c2ncnc3[nH]ccc23)CC1` [Example 54, 4-amino-N-[(1S)-1-(4-chlorophenyl)-3-(1H-imidazol-1-yl)propyl]-1-(7H-pyrrolo[2,3-d]pyrimidin-4-yl)piperidine-4-carboxamide], the pIC50 in the assay with PKB (Akt) is 6.74; at AKT1 (PKBα), 8.47.

For `NC1(C(=O)NC(Cc2ncc[nH]2)c2ccc(Cl)cc2)CCN(c2ncnc3[nH]ccc23)CC1` (stereo not drawn) [Example 59, 4-amino-N-(1-(4-chlorophenyl)-2-(1H-imidazol-2-yl)ethyl)-1-(7H-pyrrolo[2,3-d]pyrimidin-4-yl)piperidine-4-carboxamide], the values for the pIC50 in the assay with PKB (Akt) and at AKT1 (PKBα) were 6.08 and 8.20, respectively.

In the case of `NC1(C(=O)NC(Cn2cccn2)c2ccc(Cl)cc2)CCN(c2ncnc3[nH]ccc23)CC1` (stereo not drawn) [Example 60, 4-amino-N-[1-(4-chlorophenyl)-2-(1H-pyrazol-1-yl)ethyl]-1-(7H-pyrrolo[2,3-d]pyrimidin-4-yl)piperidine-4-carboxamide], the pIC50 was 6.33 in the assay with PKB (Akt) and 7.64 on AKT1 (PKBα).

As for `Cc1cc(CC(NC(=O)C2(N)CCN(c3ncnc4[nH]ccc34)CC2)c2ccc(Cl)cc2)on1` (stereo not drawn) [Example 61, 4-amino-N-[1-(4-chlorophenyl)-2-(3-methylisoxazol-5-yl)ethyl]-1-(7H-pyrrolo[2,3-d]pyrimidin-4-yl)piperidine-4-carboxamide], the pIC50 in the assay on PKB (Akt) is 6.07; at AKT1 (PKBα) it was 7.64.

As for `NC1(C(=O)NC(Cc2nccs2)c2ccc(Cl)cc2)CCN(c2ncnc3[nH]ccc23)CC1` (stereo not drawn) [Example 62, 4-amino-N-(1-(4-chlorophenyl)-2-(thiazol-2-yl)ethyl)-1-(7H-pyrrolo[2,3-d]pyrimidin-4-yl)piperidine-4-carboxamide], the negative logarithm of the IC50 (pIC50) in the assay on PKB (Akt) was 6.25; at AKT1 (PKBα), 7.55.

As to `NC(=O)CC(NC(=O)C1(N)CCN(c2ncnc3[nH]ccc23)CC1)c1ccc(Cl)cc1` (stereo not drawn) [Example 66, 4-amino-N-(3-amino-1-(4-chlorophenyl)-3-oxopropyl)-1-(7H-pyrrolo[2,3-d]pyrimidin-4-yl)piperidine-4-carboxamide], the pIC50 is 6.00 with PKB (Akt) and 8.18 at AKT1 (PKBα) (tested once only).
